Measured values taken from US12285437B2 (The Research Foundation for The State University of new York, priority 2019, dated 2025).
Like-named read-outs stand apart in the source and are kept apart here.

Legend:
[1] = system: PC-3 human prostate cancer cells; settings: FIG. 9B, PC3, […], 4 μM
Protocol: (§1) pH-dependent anti-proliferation assays with cells. In 96-well plates, ˜3,000 cells were seeded per well then grown for 24-48 hr until 30-40% confluency. […] For serum effect cell plate data shown in FIG. 5I, cell viability was measured using alamar Blue assay (i.e., growth media was replaced with 45 μL of pH 7.4 DMEM/F-12 media without phenol red, 5 μL of alamar Blue reagent (10×) was added; fluorescence at 590 nm was recorded after excitation at 560 nm at 1 hr afterwards).
(§2) The reaction solution was allowed to stand at rt for 1 hr in the dark, during which the pH decreased to ˜9.6. After 1 hr, the reaction solution was split into two 50-μL portions (for pH 7.4 vs. pH 6.2-6.8 cell experiments). The pH of one portion was adjusted to pH 8 (for pH 7.4 cell experiments) or pH 7 (for pH 6.2-6.8 cell experiments). Subsequently, the solution was diluted 30-fold (to 10 μM) with pH 7.4 or pH 6.2-6.8 cell media (final volume 1.5 mL) and then filtered (0.2 micron) before used in cell experiments.

[2] = system: NIH:OVCAR3 human ovarian cancer cells
Protocol: as §1, §2

[3] = system: ES-2 human ovarian cancer cells; test: pH-dependent anti-proliferation assay (MTS; alamar Blue for FIG. 7I); settings: for Cell Viability Average (Avg): FIG. 7A, ES-2, 6 hr
Excerpt: pH-dependent anti-proliferation assays with cells.
NaOH to adjust the pH to 9.9.

[4] = system: SKOV3 human ovarian cancer cells; settings: FIG. 9A, 4 μM
Protocol: as §1, §2

ES2 cells = test: Imaging studies (confocal microscopy); assay type: cell-based, human; settings: ES2, 1 h
Protocol: Afterwards, the treatment solution was removed; the nuclei of the cells were labeled with staining dye Hoechst 33342; and then images were taken on a scanning confocal microscope.
Imaging studies (confocal microscopy). Approximately 8,000 ES2 cells were seeded on a colIagen-coated glass dish (MatTek Corporation, part No. P35GCOL-0-10-C) and cultured in McCoy's 5A medium with 10% fetal bovine serum and 1% penicillin-streptomycin at 37° C. in the incubator (5% CO2) overnight. […] After treatment solution was removed, the cells were washed 1× with 100 μL of DMEM/F12 pH-specific media. Prior to fluorescence imaging, the nuclei of cells were stained with 1 μg/mL Hoechst 33342 in PBS for 20 min at 37° C. in the incubator. Afterwards, cells stayed in pH-specific DMEM/F12 media during imaging. […] The images in FIGS. 33-36 were processed using LAS X and ImageJ.

ES2 ovarian cancer cells = test: Antiproliferation assays against ES2 cancer cells at different pH values; assay type: cell-based, human; settings: ES2, 2 h, 1 μM
Protocol: For cell experiments, a pH 8 or pH 10 (directly from DMI to DMA conversion) solution of DMA 2/4/6 was sterilized by filtering through a 0.2-micron membrane. […] At this point, small amounts of 10 (or 25) mM of sterile aq.
Antiproliferation assays against ES2 cancer cells at different pH values. […] Treatment solution volume was 50-100 μL per well, with a set volume per well for all wells in a plate.

[5] = system: MDA-MB-231 human breast cancer cells; settings: 3 μM
Protocol: as §1, §2

[6] = system: noncancerous kidney epithelial HK2 cells; test: Cytotoxicity assays with noncancerous HK2 kidney cells; assay type: cell-based, human
Protocol: Cytotoxicity assays with noncancerous HK2 kidney cells. […] Dox and DMA prodrug experiments were carried out on separate plates. […] The cell viability in vehicle (buffer/DMSO) negative control treatment groups were treated as 100% during normalization of data.

[7] = cancer patients, two hours afterwards; cited from earlier work

COc1cccc2c1C(=O)c1c(O)c3c(c(O)c1C2=O)C[C@@](O)(C(=O)CO)C[C@@H]3O[C@H]1C[C@H](N)[C@H](O)[C@H](C)O1 [Dox, doxorubicin]
Cell Viability Avg ([1]; pH 6.3-6.4): 53%
Cell Viability Avg ([1]; pH 7.5-7.6): 15%
Cell Viability Avg ([2]; FIG. 7C, OVCAR3, 2 hr, 3 μM, pH 6.3-6.4): 57%
Cell Viability Avg ([2]; FIG. 7C, OVCAR3, 2 hr, 3 μM, pH 7.4-7.6): 24%
Cell Viability Avg ([2]; FIG. 7G, OVCAR3, 2 hr, 2 μM, pH 6.2-6.4): 60%
Cell Viability Avg ([2]; FIG. 7G, OVCAR3, 2 hr, 2 μM, pH 6.4-6.5): 55%
Cell Viability Avg ([2]; FIG. 7G, OVCAR3, 2 hr, 2 μM, pH 6.6-6.7): 58%
Cell Viability Avg ([2]; FIG. 7G, OVCAR3, 2 hr, 2 μM, pH 6.8-6.9): 46%
Cell Viability Avg ([2]; FIG. 7G, OVCAR3, 2 hr, 2 μM, pH 7.1-7.3): 51%
Cell Viability Avg ([2]; FIG. 7G, OVCAR3, 2 hr, 2 μM, pH 7.2-7.5): 48%
Cell Viability Avg ([2]; FIG. 10A, OVCAR3, 6 hr, 1 μM, pH 6.5-6.7): 81%
Cell Viability Avg ([2]; FIG. 10A, OVCAR3, 6 hr, 1 μM, pH 7.3-7.6): 51%
Cell Viability Average (Avg) ([3]; 0.5 μM, pH 6.6-6.8): 32%
Cell Viability Average (Avg) ([3]; 0.5 μM, pH 7.2-7.5): 16%
Cell Viability Avg ([3]; FIG. 7E, ES2, […], 1 μM, pH 6.3-6.4): 43%
Cell Viability Avg ([3]; FIG. 7E, ES2, […], 1 μM, pH 6.5): 49%
Cell Viability Avg ([3]; FIG. 7E, ES2, […], 1 μM, pH 6.7-6.8): 44%
Cell Viability Avg ([3]; FIG. 7E, ES2, […], 1 μM, pH 6.8-6.9): 42%
Cell Viability Avg ([3]; FIG. 7E, ES2, […], 1 μM, pH 7.2): 25%
Cell Viability Avg ([3]; FIG. 7E, ES2, […], 1 μM, pH 7.2-7.4): 23%
Cell Viability Avg ([3]; FIG. 7I, ES2, FBS(50%), 1 μM, pH 6.5-6.9): 71%
Cell Viability Avg ([3]; FIG. 7I, ES2, FBS(50%), 1 μM, pH 7.2-7.7): 36%
Cell Viability Avg ([3]; FIG. 7I, ES2, no FBS, 1 μM, pH 6.5-6.9): 77%
Cell Viability Avg ([3]; FIG. 7I, ES2, no FBS, 1 μM, pH 7.2-7.7): 48%
Cell Viability Avg ([3]; FIG. 8A, ES2, 0.1 μM, pH 6.6-6.7): 87%
Cell Viability Avg ([3]; FIG. 8A, ES2, 0.1 μM, pH 7.5-7.6): 62%
Cell Viability Avg ([3]; FIG. 8A, ES2, 0.3 μM, pH 6.6-6.7): 72%
Cell Viability Avg ([3]; FIG. 8A, ES2, 0.3 μM, pH 7.5-7.6): 33%
Cell Viability Avg ([3]; FIG. 8A, ES2, 1 μM, pH 6.6-6.7): 35%
Cell Viability Avg ([3]; FIG. 8A, ES2, 1 μM, pH 7.5-7.6): 15%
Cell Viability Avg ([3]; FIG. 8A, ES2, 3 μM, pH 6.6-6.7): 21%
Cell Viability Avg ([3]; FIG. 8A, ES2, 3 μM, pH 7.5-7.6): 2%
Cell Viability Avg ([3]; FIG. 8B, ES2, 2 hr, 1 μM, pH 6.6-6.8): 44%
Cell Viability Avg ([3]; FIG. 8B, ES2, 2 hr, 1 μM, pH 7.2-7.6): 23%
Cell Viability Avg ([3]; FIG. 8B, ES2, 6 hr, 0.5 μM, pH 6.6-6.8): 32%
Cell Viability Avg ([3]; FIG. 8B, ES2, 6 hr, 0.5 μM, pH 7.2-7.6): 16%
Cell Viability Avg ([3]; FIG. 8B, ES2, 12 hr, 0.5 μM, pH 6.6-6.8): 47%
Cell Viability Avg ([3]; FIG. 8B, ES2, 12 hr, 0.5 μM, pH 7.2-7.6): 13%
Cell Viability Avg ([3]; FIG. 8B, ES2, 24 hr, 1 μM, pH 6.6-6.8): 35%
Cell Viability Avg ([3]; FIG. 8B, ES2, 24 hr, 1 μM, pH 7.2-7.6): 15%
Cell Viability Avg ([3]; FIG. 10B, ES2, 12 hr, 0.5 μM, pH 6.6-6.7): 47%
Cell Viability Avg ([3]; FIG. 10B, ES2, 12 hr, 0.5 μM, pH 7.4-7.6): 13%
Cell Viability Avg ([4]; pH 6.3-6.5): 39%
Cell Viability Avg ([4]; pH 7.5-7.6): 22%
distribution of Dox fluorescence within cells (ES2 cells): within the nuclei
Dox fluorescence signals in cells, pH 6.7 vs. 7.7 (ES2 cells; 4 μM Dox or 8 μM prodrug/DMI): More Dox fluorescence signals were observed at pH 7.7 than 6.7
viability (ES2 ovarian cancer cells; pH 6.6-6.8): 60-70%
viability (ES2 ovarian cancer cells; FIG. 29A, pH 6.7): 60-70%
viability (ES2 ovarian cancer cells; FIG. 29A, pH 7.5): 28%
viability (ES2 ovarian cancer cells; FIG. 31A, pH 6.5-6.8): 40-60%
viability (ES2 ovarian cancer cells; FIG. 31A, pH 7.5): ~20%
Cell Viability Avg ([5]; FIG. 7B, MDA-MB231, 2 hr, pH 6.3-6.4): 30%
Cell Viability Avg ([5]; FIG. 7B, MDA-MB231, 2 hr, pH 7.6-7.7): 15%
Cell Viability Avg ([5]; FIG. 7F, MDA-MB231, […], pH 6.3-6.4): 30%
Cell Viability Avg ([5]; FIG. 7F, MDA-MB231, […], pH 6.5): 29%
Cell Viability Avg ([5]; FIG. 7F, MDA-MB231, […], pH 6.6-6.7): 36%
Cell Viability Avg ([5]; FIG. 7F, MDA-MB231, […], pH 6.9-7.0): 30%
Cell Viability Avg ([5]; FIG. 7F, MDA-MB231, […], pH 7.2-7.3): 29%
Cell Viability Avg ([5]; FIG. 7F, MDA-MB231, […], pH 7.5-7.7): 31%
viability ([6]; FIG. 29B, HK2, pH 7.4, 30 μM): 21%
cells killed ([6]; FIG. 30B, HK2, pH 7.4, 1 μM): 20%
viable cells ([6]; FIG. 30B, HK2, pH 7.4, 30 μM): 31%
cells killed ([6]; FIG. 31B, HK2, pH 7.4, 30 μM): > 80%
intratumoral concentration [7]: 0.5 to 5 mM
